Biological target: recombinant human His-ATG7 enzyme (Homo sapiens (Human), UniProt O95352)
Experiment: ATG7 Enzyme Assay (HTRF/FRET, ATG3-GST and Flag-Gabarap)
Format: biochemical
Settings: for inhibition at 0.111 µM: Concentration 0.111 μM, read-out: Percent Inhibition
Procedure, shortened: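 0.15 nM His-ATG7 was reacted with 5 nM ATG3-GST, 5 nM Flag-Gabarap and 10 μM ATP in HEPES pH 7.5 containing MgCl2, GSH and TCEP for 105 min at 24° C, then stopped with EDTA/KF. Eu-anti-Flag and anti-GST-APC HTRF was read after 2 h. Results are given as single-concentration % inhibition or IC50.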

Chain of recombinant human His-ATG7 enzyme (O95352 whole entry): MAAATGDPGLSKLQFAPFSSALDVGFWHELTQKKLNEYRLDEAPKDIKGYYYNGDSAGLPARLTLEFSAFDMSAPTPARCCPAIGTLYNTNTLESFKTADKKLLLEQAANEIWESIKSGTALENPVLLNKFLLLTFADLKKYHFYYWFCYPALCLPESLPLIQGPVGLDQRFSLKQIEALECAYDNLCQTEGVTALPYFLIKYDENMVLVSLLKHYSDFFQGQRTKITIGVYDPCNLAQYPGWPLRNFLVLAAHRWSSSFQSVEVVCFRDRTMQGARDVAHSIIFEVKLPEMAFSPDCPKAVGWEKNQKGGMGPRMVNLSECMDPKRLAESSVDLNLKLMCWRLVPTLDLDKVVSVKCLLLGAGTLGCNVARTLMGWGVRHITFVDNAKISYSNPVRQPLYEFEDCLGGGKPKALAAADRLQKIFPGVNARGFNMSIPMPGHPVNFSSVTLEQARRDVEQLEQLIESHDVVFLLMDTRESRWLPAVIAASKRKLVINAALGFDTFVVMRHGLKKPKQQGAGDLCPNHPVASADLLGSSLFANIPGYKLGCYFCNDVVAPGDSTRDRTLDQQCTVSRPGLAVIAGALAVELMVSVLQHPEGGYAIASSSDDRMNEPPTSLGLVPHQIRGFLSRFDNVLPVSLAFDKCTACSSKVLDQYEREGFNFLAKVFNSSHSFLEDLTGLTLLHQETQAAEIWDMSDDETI

| Structure (SMILES) | IC50 [nM] | inhibition at 0.111 µM [%] |
| --- | --- | --- |
| COc1cccc(Sc2nn([C@H]3C[C@H](O)[C@@H](COS(N)(=O)=O)O3)c3ncnc(N)c23)c1 [Compound I-199, [(2R,3S,5R)-5-{4-amino-3-[(3-methoxyphenyl)sulfanyl]-1H-pyrazolo[3,4-d]pyrimidin-1-yl}-3-hydroxytetrahydrofuran-2-yl]methyl sulfamate] | 20 to 50 | 74 |
| CSc1nn([C@H]2C[C@H](O)[C@@H](COS(N)(=O)=O)O2)c2ncnc(N)c12 [Compound I-200, {(2R,3S,5R)-5-[4-amino-3-(methylsulfanyl)-1H-pyrazolo[3,4-d]pyrimidin-1-yl]-3-hydroxytetrahydrofuran-2-yl}methyl Sulfamate] | 20 to 50 | 70 |
| Nc1ncnc2c1c(Sc1ccc3c(c1)OCCO3)nn2[C@H]1C[C@H](O)[C@@H](COS(N)(=O)=O)O1 [Compound I-201, {(2R,3S,5R)-5-[4-amino-3-(2,3-dihydro-1,4-benzodioxin-6-ylsulfanyl)-1H-pyrazolo[3,4-d]pyrimidin-1-yl]-3-hydroxytetrahydrofuran-2-yl}methyl sulfamate] | 20 to 50 | 68 |
| Nc1ncnc2c1c(SCC1CC1)nn2[C@H]1C[C@H](O)[C@@H](COS(N)(=O)=O)O1 [Compound I-202, [(2R,3S,5R)-5-{4-amino-3-[(cyclopropylmethyl)sulfanyl]-1H-pyrazolo[3,4-d]pyrimidin-1-yl}-3-hydroxytetrahydrofuran-2-yl]methyl Sulfamate] | 50 to 100 | 62 |
| Nc1ncnc2c1c(Sc1cc3c(cc1F)CCC3)nn2[C@H]1C[C@H](O)[C@@H](COS(N)(=O)=O)O1 [Compound I-203, [(2R,3S,5R)-5-{4-amino-3-[(6-fluoro-2,3-dihydro-1H-inden-5-yl)sulfanyl]-1H-pyrazolo[3,4-d]pyrimidin-1-yl}-3-hydroxytetrahydrofuran-2-yl]methyl Sulfamate] | 50 to 100 | 58 |
| Nc1ncnc2c1c(SCc1cc3ccccc3s1)nn2[C@H]1C[C@H](O)[C@@H](COS(N)(=O)=O)O1 [Compound I-204, [(2R,3S,5R)-5-{4-amino-3-[(1-benzothiophen-2-ylmethyl)sulfanyl]-1H-pyrazolo[3,4-d]pyrimidin-1-yl}-3-hydroxytetrahydrofuran-2-yl]methyl sulfamate] | 100 to 500 | 50 |
| Cc1cccc(Sc2nn([C@H]3C[C@H](O)[C@@H](COS(N)(=O)=O)O3)c3ncnc(N)c23)c1 [Compound I-205, [(2R,3S,5R)-5-{4-amino-3-[(3-methylphenyl)sulfanyl]-1H-pyrazolo[3,4-d]pyrimidin-1-yl}-3-hydroxytetrahydrofuran-2-yl]methyl sulfamate] | 50 to 100 | 55 |
| Nc1ncnc2c1c(Sc1cccc(F)c1)nn2[C@H]1C[C@H](O)[C@@H](COS(N)(=O)=O)O1 [Compound I-206, [(2R,3S,5R)-5-{4-amino-3-[(3-fluorophenyl)sulfanyl]-1H-pyrazolo[3,4-d]pyrimidin-1-yl}-3-hydroxytetrahydrofuran-2-yl]methyl sulfamate] | 100 to 500 | 44 |
| COc1ccc(Sc2nn([C@H]3C[C@H](O)[C@@H](COS(N)(=O)=O)O3)c3ncnc(N)c23)cc1OC [Compound I-207, [(2R,3S,5R)-5-{4-amino-3-[(3,4-dimethoxyphenyl)sulfanyl]-1H-pyrazolo[3,4-d]pyrimidin-1-yl}-3-hydroxytetrahydrofuran-2-yl]methyl sulfamate] | 50 to 100 | 65 |
| Cc1csc(Sc2nn([C@H]3C[C@H](O)[C@@H](COS(N)(=O)=O)O3)c3ncnc(N)c23)n1 [Compound I-208, [(2R,3S,5R)-5-{4-amino-3-[(4-methyl-1,3-thiazol-2-yl)sulfanyl]-1H-pyrazolo[3,4-d]pyrimidin-1-yl}-3-hydroxytetrahydrofuran-2-yl]methyl sulfamate] | 100 to 500 | 44 |
| Nc1ncnc2c1c(C(F)(F)F)nn2[C@H]1C[C@H](O)[C@H](COS(N)(=O)=O)O1 [Compound I-209, {(2S,3S,5R)-5-[4-amino-3-(trifluoromethyl)-1H-pyrazolo[3,4-d]pyrimidin-1-yl]-3-hydroxytetrahydrofuran-2-yl}methyl Sulfamate] | 100 to 500 | 42 |
| Nc1ncnc2c1c(Sc1ccc3ccccc3c1)nn2[C@H]1C[C@H](O)[C@H](COS(N)(=O)=O)O1 [Compound I-210, {(2S,3S,5R)-5-[4-amino-3-(2-naphthylsulfanyl)-1H-pyrazolo[3,4-d]pyrimidin-1-yl]-3-hydroxytetrahydrofuran-2-yl}methyl Sulfamate] | 100 to 500 | 35 |
| CCc1nn([C@H]2C[C@H](O)[C@H](COS(N)(=O)=O)O2)c2ncnc(N)c12 [Compound I-212, [(2S,3S,5R)-5-(4-amino-3-ethyl-1H-pyrazolo[3,4-d]pyrimidin-1-yl)-3-hydroxytetrahydrofuran-2-yl]methylsulfamate] |  | 7 |

Results, then the compound that gave them:

| IC50 [nM] | inhibition at 0.111 µM [%] | Structure (SMILES) |
| --- | --- | --- |
| 100 to 500 | 46 | CCSc1nn([C@H]2C[C@H](O)[C@H](COS(N)(=O)=O)O2)c2ncnc(N)c12 [Compound I-213, {(2S,3S,5R)-5-[4-amino-3-(ethylsulfanyl)-1H-pyrazolo[3,4-d]pyrimidin-1-yl]-3-hydroxytetrahydrofuran-2-yl}methyl sulfamate] |
| 100 to 500 | 43 | Cc1ccc(Sc2nn([C@H]3C[C@H](O)[C@H](COS(N)(=O)=O)O3)c3ncnc(N)c23)cc1 [Compound I-214, [(2S,3S,5R)-5-{4-amino-3-[(4-methylphenyl)sulfanyl]-1H-pyrazolo[3,4-d]pyrimidin-1-yl}-3-hydroxytetrahydrofuran-2-yl]methyl sulfamate] |
| 100 to 500 | 45 | Nc1ncnc2c1c(Sc1ccccc1F)nn2[C@H]1C[C@H](O)[C@H](COS(N)(=O)=O)O1 [Compound I-215, [(2S,3S,5R)-5-{4-amino-3-[(2-fluorophenyl)sulfanyl]-1H-pyrazolo[3,4-d]pyrimidin-1-yl}-3-hydroxytetrahydrofuran-2-yl]methyl sulfamate] |
| 100 to 500 | 41 | Nc1ncnc2c1c(Sc1ccc3c(c1)CCC3)nn2[C@H]1C[C@H](O)[C@H](COS(N)(=O)=O)O1 [Compound I-216, {(2S,3S,5R)-5-[4-amino-3-(2,3-dihydro-1H-inden-5-ylsulfanyl)-1H-pyrazolo[3,4-d]pyrimidin-1-yl]-3-hydroxytetrahydrofuran-2-yl}methyl sulfamate] |
| 100 to 500 | 34 | Nc1ncnc2c1c(C(F)F)nn2[C@H]1C[C@H](O)[C@H](COS(N)(=O)=O)O1 [Compound I-217, {(2S,3S,5R)-5-[4-amino-3-(difluoromethyl)-1H-pyrazolo[3,4-d]pyrimidin-1-yl]-3-hydroxytetrahydrofuran-2-yl}methyl Sulfamate] |
| > 500 | 8 | Cc1nn([C@H]2C[C@H](O)[C@H](COS(N)(=O)=O)O2)c2ncnc(N)c12 [Compound I-218, [(2S,3S,5R)-5-(4-amino-3-methyl-1H-pyrazolo[3,4-d]pyrimidin-1-yl)-3-hydroxytetrahydrofuran-2-yl]methyl Sulfamate] |

From patent publication US10865208B2, “ATG7 inhibitors and the uses thereof” (Millennium Pharmaceuticals, Inc., priority 2016, dated 2020)
